Target: Trace amine-associated receptor 1 (Mus musculus, UniProt Q923Y8)
Test: Binding Assay: Radioligand binding assay: The radioligand [3H]-rac-2-(1,2,3,4-tetrahydro-1-naphthyl)-2-imidazoline was used at a concentration equal to the calculated Kd value of 60 nM to give a total binding at around 0.1% of the total added radioligand concentration, and a specific binding which represented approximately 70-80% of the total binding.

Chain of Trace amine-associated receptor 1 (Q923Y8 whole entry): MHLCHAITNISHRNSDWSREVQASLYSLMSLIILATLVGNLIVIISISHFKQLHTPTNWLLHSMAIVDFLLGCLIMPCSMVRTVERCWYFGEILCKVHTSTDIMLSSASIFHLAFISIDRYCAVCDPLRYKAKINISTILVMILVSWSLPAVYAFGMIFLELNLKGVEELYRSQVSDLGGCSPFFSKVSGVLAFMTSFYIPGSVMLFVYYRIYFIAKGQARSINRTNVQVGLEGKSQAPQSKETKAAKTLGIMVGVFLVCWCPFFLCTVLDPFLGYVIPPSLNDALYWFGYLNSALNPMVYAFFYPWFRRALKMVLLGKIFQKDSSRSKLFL

Ki | SMILES
2.9 nM | CN(Cc1cnc[nH]1)c1cccc(F)c1
7.2 nM | CCN(Cc1cnc[nH]1)c1ccc(CCc2ccc(Cl)cc2)cc1

Source: ChEMBL document CHEMBL3638975, “Aminomethyl-4-imidazoles” (2013)
